{"source": "patent US20240189297A1", "about": "(priority 2021, published 2024)", "key": {"[1]": {"settings": "free base (non-protonated) nicotine; cited from earlier work"}}, "note": "Like-named read-outs stand apart in the source and are kept apart here.", "data": [{"smiles": "CN1CCCC1c1cccnc1", "note": "(stereo not drawn) [nicotine, 3-(1-methyl-2-pyrrolidinyl) pyridine]", "values": [{"measurement": "partition coefficient (oil phase : aqueous phase)", "setting": "Samples 1-4: MCT oil vs DI water, basified DI water pH 7.4, artificial saliva pH 6.8, acidified DI water pH 2", "value": "greater than 1"}, {"measurement": "partition coefficient (oil phase : aqueous phase)", "setting": "Samples 5-8: MCT, triacetin or triolein oil vs 1M acetic acid pH adjuster, pH 2", "value": "less than 1"}, {"measurement": "pKa value", "setting": "[1]", "value": "about 8"}]}]}
